This assay deals with Histone deacetylase 2 (Homo sapiens, UniProt Q92769). As to the kind of experiment: Inhibition of full-length recombinant human C-terminal GST tagged HDAC2 expressed in Sf9 insect cells using aminoluciferin peptide substrate at 100 nM preincubated for 3 hrs followed by substrate addition and measured after 30 mins by HDAC-Glo I/II chemiluminescence assay. The settings on record: time 3.5 hrs.
Chain of Histone deacetylase 2 (Q92769 whole entry): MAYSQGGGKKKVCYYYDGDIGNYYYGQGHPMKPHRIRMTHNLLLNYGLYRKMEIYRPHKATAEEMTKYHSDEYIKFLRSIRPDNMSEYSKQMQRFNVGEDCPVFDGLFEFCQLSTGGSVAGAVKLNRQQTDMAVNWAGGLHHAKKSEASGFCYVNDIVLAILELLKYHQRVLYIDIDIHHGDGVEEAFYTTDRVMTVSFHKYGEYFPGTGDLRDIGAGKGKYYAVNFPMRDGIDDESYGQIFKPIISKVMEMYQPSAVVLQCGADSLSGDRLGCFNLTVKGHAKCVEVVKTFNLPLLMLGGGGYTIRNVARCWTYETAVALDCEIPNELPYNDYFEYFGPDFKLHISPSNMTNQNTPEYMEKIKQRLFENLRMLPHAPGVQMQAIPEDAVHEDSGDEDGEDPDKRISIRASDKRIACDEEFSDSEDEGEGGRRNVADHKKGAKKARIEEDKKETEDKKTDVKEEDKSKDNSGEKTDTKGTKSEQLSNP
As for `Nc1ccc(-c2ccc(F)cc2)cc1NC(=O)CCc1cn(CCN2CCc3ccccc3C2)nn1`, the inhibition was 18%.

Regarding `COc1ccc(Cn2cc(C(=O)Nc3cc(-c4ccsc4)ccc3N)nn2)cc1`, the inhibition was found to be 25%.

As for `Nc1ccc(-c2cccs2)cc1NC(=O)c1cn(Cc2cccc(-c3ccccc3)c2)nn1`, the inhibition was 6%.

Take `Nc1ccc(-c2ccc(F)cc2)cc1NC(=O)c1cn(CCc2c[nH]c3ccccc23)nn1`: the inhibition stood at 5%.

In the case of `Nc1ccc(-c2ccccc2)cc1NC(=O)CCc1cn(CCc2ccccc2)nn1`, the inhibition was 24%.

Take `Nc1ccc(-c2ccsc2)cc1NC(=O)CCc1cn(Cc2cc3ccccc3s2)nn1`: the inhibition came to 3%.

`COc1ccccc1CCn1cc(C(=O)Nc2cc(-c3ccc(F)cc3)ccc2N)nn1`: the inhibition worked out at 5%.

Consider `Nc1ccc(-c2cccs2)cc1NC(=O)c1ccc(-c2cn(Cc3cccc(C(=O)O)c3)nn2)s1`, for which the inhibition worked out at 25%.

As for `Nc1ccc(-c2cccs2)cc1NC(=O)c1cn(CS(=O)(=O)c2ccccc2)nn1`, the inhibition worked out at 17%.

In the case of `Nc1ccc(-n2cc(C(=O)Nc3cc(-c4cccs4)ccc3N)nn2)cc1`, the inhibition came out at 10%.

With `Nc1ccc(-c2ccc(F)cc2)cc1NC(=O)CCc1cn(Cc2ccc(Oc3ccccc3)cc2)nn1`, the inhibition was 0%.

For `COc1ccc(-n2cc(CCC(=O)Nc3cc(-c4ccsc4)ccc3N)nn2)cc1`, the inhibition came to 12%.

As for `Cc1cccc(CCn2cc(CCC(=O)Nc3cc(-c4ccsc4)ccc3N)nn2)c1`, the inhibition came out at 26%.

As to `Nc1ccc(-c2ccsc2)cc1NC(=O)CCc1cn(Cc2cccc(C(=O)O)c2)nn1`, the inhibition turned out to be 0%.

For `Nc1ccc(-n2cc(-c3ccc(C(=O)Nc4cc(-c5cccs5)ccc4N)s3)nn2)cc1`, the inhibition turned out to be 44%.

Turning to `Nc1ccc(-c2ccccc2)cc1NC(=O)c1cn(CCc2cccc(Cl)c2)nn1`, the inhibition worked out at 0%.

Regarding `Nc1ccc(-c2ccc(F)cc2)cc1NC(=O)CCc1cn(Cc2cccc(C(=O)O)c2)nn1`, the inhibition came to 0%.

For `Nc1ccc(-c2ccc(F)cc2)cc1NC(=O)c1cn(CC(=O)c2ccccc2)nn1`, the inhibition is 6%.

For the molecule `Nc1ccc(-c2ccc(F)cc2)cc1NC(=O)CCc1cn(CCc2cccc(C(F)(F)F)c2)nn1`, the inhibition worked out at 11%.

`COc1ccc(-n2cc(-c3ccc(C(=O)Nc4cc(-c5cccs5)ccc4N)cc3)nn2)cc1`: the inhibition turned out to be 0%.

For the molecule `Nc1ccc(-c2cccnc2)cc1NC(=O)CCc1cn(CCCCCCC(=O)O)nn1`, the inhibition worked out at 0%.

In the case of `Nc1ccc(-c2cccs2)cc1NC(=O)CCc1cn(CCN2CCc3ccccc3C2)nn1`, the inhibition is 14%.

As to `Nc1ccc(-c2cccs2)cc1NC(=O)c1ccc(-c2cn(CCc3cccc(F)c3)nn2)s1`, the inhibition worked out at 24%.

As to `Cc1cccc(C)c1NC(=O)Cn1cc(C(=O)Nc2cc(-c3ccsc3)ccc2N)nn1`, the inhibition came out at 24%.

As to `Nc1ccc(-c2ccccc2)cc1NC(=O)c1cn(CCCCCC(=O)O)nn1`, the inhibition came out at 0%.

For `Nc1ccc(-c2cccs2)cc1NC(=O)c1cn(Cc2ccc3ccccc3c2)nn1`, the inhibition stood at 17%.

In the case of `COc1ccccc1CCn1cc(-c2cccc(C(=O)Nc3cc(-c4cccs4)ccc3N)c2)nn1`, the inhibition was found to be 3%.

Consider `Nc1ccc(-c2ccccc2)cc1NC(=O)c1cn(CCc2ccccc2Cl)nn1`, for which the inhibition was 0%.

As for `Nc1ccc(-c2ccccc2)cc1NC(=O)CCc1cn(-c2ccccc2-c2ccccc2)nn1`, the inhibition turned out to be 2%.

On to `Cc1cccc(C)c1NC(=O)Cn1cc(C(=O)Nc2cc(-c3ccccc3)ccc2N)nn1`, for which the inhibition amounted to 9%.

As to `Nc1ccc(-c2ccc(F)cc2)cc1NC(=O)c1cn(Cc2nc3ccccc3[nH]2)nn1`, the inhibition turned out to be 37%.

Take `Cc1ccccc1CCn1cc(C(=O)Nc2cc(-c3ccc(F)cc3)ccc2N)nn1`: the inhibition was determined as 0%.

As for `Nc1ccc(-c2ccsc2)cc1NC(=O)CCc1cn(CCc2ccccc2[N+](=O)[O-])nn1`, the inhibition was 23%.

With `Nc1ccc(-c2ccccc2)cc1NC(=O)CCc1cn(-c2cccc3ccccc23)nn1`, the inhibition stood at 0%.

For `Nc1ccc(-c2cccs2)cc1NC(=O)CCc1cn(Cc2ccc(OC(F)(F)F)cc2)nn1`, the inhibition came out at 17%.

Take `Nc1ccc(-c2cccs2)cc1NC(=O)c1ccc(-c2cn(CCc3ccccn3)nn2)s1`: the inhibition came to 71%.

Take `Nc1ccc(-c2ccsc2)cc1NC(=O)c1cn(CCCc2ccccc2)nn1`: the inhibition worked out at 5%.

For the molecule `COc1ccc(-n2cc(CCC(=O)Nc3cc(-c4cccnc4)ccc3N)nn2)cc1`, the inhibition was found to be 9%.

For `Nc1ccc(-c2ccc(F)cc2)cc1NC(=O)CCc1cn(Cc2ccc3ccccc3c2)nn1`, the inhibition worked out at 15%.

With `Nc1ccc(-c2ccc(F)cc2)cc1NC(=O)CCc1cn(CCc2ccc(C(=O)O)cc2)nn1`, the inhibition came out at 33%.

`Nc1ccc(-c2ccccc2)cc1NC(=O)CCc1cn(CCc2ccc(Cl)cc2)nn1`: the inhibition is 0%.

For the molecule `Nc1ccc(-c2ccc(F)cc2)cc1NC(=O)CCc1cn(Cc2ccc3ccccc3n2)nn1`, the inhibition is 26%.

As to `Nc1ccc(-c2cccnc2)cc1NC(=O)CCc1cn(Cc2cccc3ccccc23)nn1`, the inhibition is 12%.

Regarding `Nc1ccc(-c2cccnc2)cc1NC(=O)CCc1cn(CCc2ccccc2)nn1`, the inhibition was 23%.

On to `Nc1ccc(-c2cccs2)cc1NC(=O)c1ccc(-c2cn(-c3cccc4ccccc34)nn2)s1`, for which the inhibition came to 0%.

In the case of `Nc1ccc(-c2cccs2)cc1NC(=O)c1cccc(-c2cn(CCCCCC(=O)O)nn2)c1`, the inhibition turned out to be 41%.

For `Nc1ccc(-c2ccc(F)cc2)cc1NC(=O)CCc1cn(C[S+]([O-])c2ccccc2)nn1` (stereo not given), the inhibition turned out to be 17%.

Regarding `Nc1ccc(-c2cccs2)cc1NC(=O)c1ccc(-c2cn(-c3ccc(O)cc3)nn2)s1`, the inhibition stood at 20%.

Regarding `COc1ccc(-n2cc(CCC(=O)Nc3cc(-c4ccccc4)ccc3N)nn2)cc1`, the inhibition amounted to 11%.

For the molecule `Nc1ccc(-c2cccs2)cc1NC(=O)c1ccc(-c2cn(CCCCC(=O)O)nn2)s1`, the inhibition was 51%.

On to `Nc1ccc(-c2ccc(F)cc2)cc1NC(=O)CCc1cn(CCc2cccc([N+](=O)[O-])c2)nn1`, for which the inhibition worked out at 41%.

Turning to `Cc1csc(CCn2cc(CCC(=O)Nc3cc(-c4ccccc4)ccc3N)nn2)n1`, the inhibition was 29%.

As to `Nc1ccc(-c2ccsc2)cc1NC(=O)c1cn(Cc2ccc(C(=O)O)cc2)nn1`, the inhibition is 49%.

Regarding `Nc1ccc(-c2ccsc2)cc1NC(=O)CCc1cn(CCCCCc2ccccc2)nn1`, the inhibition turned out to be 5%.

Turning to `Nc1ccc(-c2ccc(F)cc2)cc1NC(=O)c1cn(Cc2cc3ccccc3s2)nn1`, the inhibition was found to be 7%.

On to `Nc1ccc(-c2ccccc2)cc1NC(=O)c1cn(CCN2CCc3ccccc3C2)nn1`, for which the inhibition was 0%.

Consider `Nc1ccc(-c2cccs2)cc1NC(=O)c1ccc(-c2cn(Cc3nc4ccccc4[nH]3)nn2)s1`, for which the inhibition came out at 63%.

Turning to `Nc1ccc(-c2ccsc2)cc1NC(=O)CCc1cn(CCc2cccc(C(F)(F)F)c2)nn1`, the inhibition was 2%.

As for `Nc1ccc(-c2cccs2)cc1NC(=O)c1ccc(-c2cn(CCc3cccc(Cl)c3)nn2)s1`, the inhibition amounted to 6%.

Take `Nc1ccc(-c2ccccc2)cc1NC(=O)c1cn(CCc2ccc(C(=O)O)cc2)nn1`: the inhibition came out at 9%.

For the molecule `Nc1ccc(-c2ccccc2)cc1NC(=O)c1cn(Cc2ccc3ccccc3c2)nn1`, the inhibition was 1%.

In the case of `Cc1ccccc1CCn1cc(CCC(=O)Nc2cc(-c3ccc(F)cc3)ccc2N)nn1`, the inhibition stood at 7%.

On to `Cc1ccc(-n2cc(CCC(=O)Nc3cc(-c4cccnc4)ccc3N)nn2)cc1C`, for which the inhibition turned out to be 0%.

As for `CCc1ccc(Cn2cc(CCC(=O)Nc3cc(-c4cccnc4)ccc3N)nn2)cc1`, the inhibition worked out at 5%.

With `Nc1ccc(-c2ccc(F)cc2)cc1NC(=O)CCc1cn(CCCCCc2ccccc2)nn1`, the inhibition was determined as 5%.

In the case of `Nc1ccc(-c2cccnc2)cc1NC(=O)CCc1cn(Cc2ccc3ccccc3c2)nn1`, the inhibition is 19%.

As to `Nc1ccc(-c2cccnc2)cc1NC(=O)CCc1cn(Cc2ccc(-c3ccccc3)cc2)nn1`, the inhibition amounted to 8%.

Consider `Nc1ccc(-c2cccs2)cc1NC(=O)c1cn(CCc2ccccc2[N+](=O)[O-])nn1`, for which the inhibition turned out to be 19%.

Turning to `Nc1ccc(-c2cccs2)cc1NC(=O)CCc1cn(-c2ccc(Br)cc2)nn1`, the inhibition was 11%.

Consider `Nc1ccc(-c2cccs2)cc1NC(=O)c1cccc(-c2cn(CCc3ccc(C(F)(F)F)cc3)nn2)c1`, for which the inhibition was found to be 0%.

In the case of `Nc1ccc(-c2cccnc2)cc1NC(=O)CCc1cn(/C=C/c2ccccc2)nn1`, the inhibition was 7%.

Take `Cc1ccc(-n2cc(-c3cccc(C(=O)Nc4cc(-c5cccs5)ccc4N)c3)nn2)cc1C`: the inhibition is 5%.

On to `Nc1ccc(-c2ccsc2)cc1NC(=O)CCc1cn(CCc2ccccc2Cl)nn1`, for which the inhibition is 11%.

On to `COc1ccccc1CCn1cc(-c2ccc(C(=O)Nc3cc(-c4cccs4)ccc3N)cc2)nn1`, for which the inhibition is 29%.

As to `Nc1ccc(-c2cccs2)cc1NC(=O)c1ccc(-c2cn(-c3cccc4ccccc34)nn2)cc1`, the inhibition worked out at 0%.

As to `Nc1ccc(-c2cccnc2)cc1NC(=O)CCc1cn(Cc2ccc(C(=O)O)cc2)nn1`, the inhibition is 7%.

Consider `Nc1ccc(-c2ccccc2)cc1NC(=O)c1cn(CCC2CCCC2)nn1`, for which the inhibition turned out to be 0%.

As for `COc1ccc(-n2cc(C(=O)Nc3cc(-c4ccccc4)ccc3N)nn2)cc1`, the inhibition amounted to 2%.

In the case of `Nc1ccc(-c2ccsc2)cc1NC(=O)CCc1cn(CCCCC(=O)O)nn1`, the inhibition was 0%.

Consider `Nc1ccc(-c2ccccc2)cc1NC(=O)CCc1cn(Cc2ccc3ccccc3c2)nn1`, for which the inhibition was determined as 11%.

Turning to `Nc1ccc(-c2ccc(F)cc2)cc1NC(=O)c1cn(-c2cccc3ccccc23)nn1`, the inhibition was 4%.

Consider `CCc1ccc(Cn2cc(CCC(=O)Nc3cc(-c4ccsc4)ccc3N)nn2)cc1`, for which the inhibition worked out at 6%.

With `Nc1ccc(-c2ccccc2)cc1NC(=O)c1cn(CCCCCCCC(=O)O)nn1`, the inhibition turned out to be 0%.

As for `Nc1ccc(-c2ccc(F)cc2)cc1NC(=O)CCc1cn(CCCCC(=O)O)nn1`, the inhibition was 0%.

For the molecule `Cc1ccc(CCn2cc(CCC(=O)Nc3cc(-c4cccnc4)ccc3N)nn2)cc1`, the inhibition stood at 18%.

These data come from ChEMBL document CHEMBL5390237, “Discovery of Selective Histone Deacetylase 1 and 2 Inhibitors: Screening of a Focused Library Constructed by Click Chemistry, Kinetic Binding Analysis, and Biological Evaluation” (J Med Chem, 2023).
